Experimental data reported in article PMC11506537, “An 11-mer Synthetic Peptide Suppressing Aggregation of Aβ25-35 and Resolving Its Aggregated Form Improves Test Performance in an Aβ25-35-Induced Alzheimer’s Mouse Model” (Biomolecules, 2024).
Where a SMILES comes first, the peptide text is derived from it.

Legend:
[1] = test system: A549 cells; assay: A549 cell viability, WST-8 assay; settings: 0.1 mg/mL peptide, 72 h, WST-8, n = 4; compared with FLAG peptide
Method: The human lung cancer cell line, A549, was obtained from the Riken Cell Bank (Ibaraki, Japan). The cells were cultured as described previously [30, 43]. Briefly, A549 cells (4 × 10^3 cells/well) were seeded into 96-well plates and maintained in Dulbecco’s modified Eagle’s medium (DMEM) supplemented with 10% fetal bovine serum, 100 units/mL penicillin, and 100 μg/mL streptomycin at 37 °C in a humidified atmosphere with 5% CO2. […] After incubation for 72 h, the medium was exchanged for 110 μL of medium containing 10 μL WST-8 (water-soluble tetrazolium salt WST-8) reagent and 100 μL DMEM). The cells were further incubated for 1 h, the absorbance was determined at 450 nm with a reference wavelength of 620 nm using a SPECTRA max Plus384 microplate reader (Molecular Devices, LCC, San Jose, CA, USA).

[2] = Solubility; format: physicochemical; settings: stated without data
[3] = target: T1, Aβ25-35 (Homo sapiens, UniProt P05067); assay: ThT assay, inhibition of Aβ25-35 aggregation; format: biochemical; settings: for IC50: 100 µM Aβ25-35, PBS, 37 °C, 4 h, ThT fluorescence, n = 3
T1 construct: made in house; host or cells: chemical solid-phase (Fmoc) peptide synthesis; no expression host
Method: To perform the ThT assay to evaluate aggregation, Aβ25-35 (final concentration of 100 μM) was incubated with ThT solution (final concentration of 10 μM) in Phosphate-buffered saline (PBS), pH 7.4. The ThT signal was monitored by measuring the fluorescence emission at 480 nm for 10 s when excited at 444 nm using Cytation 5 (BioTek, Vermont, WI, USA) at 37 °C [41]. Aggregated Aβ25-35 (100 μM) peptides were prepared by incubating for 18 h in PBS.
We also evaluated inhibitory effects in a time-dependent manner. The fluorescence intensity of the reaction mixture of peptide and Aβ25-35 was traced for 120 min at 15 min intervals.
Therefore, we evaluated the concentration-dependent aggregation inhibitory effect of YS-RD11 and YS-RE16 on Aβ25-35. Various concentrations of the peptides (YS-RD11; 1 to 100 µM, YS-RE16; 0.01 to 10 µM) were incubated independently with 100 µM Aβ25-35 (final con. 100 µM) in PBS at 37 °C. The fluorescence intensity of reaction mixtures was measured after 4 h.

[4] = test system: aggregated Aβ25-35; assay: SEM, resolution of aggregated Aβ25-35; format: biochemical
Method: Aβ25-35 (100 μM) was incubated with YS-RD11 or YS-RE16 in PBS at 37 °C. The reaction mixture was centrifuged at 9000 rpm for 5 min. The supernatant was removed, 200 μL of MilliQ water was added and mixed, and the solution was centrifuged at 9000 rpm for 5 min to obtain a sample for SEM [42]. Aggregated Aβ25-35 (100 μM) peptides were prepared by incubating for 18 h in PBS.
Next, the resolving effect of YS-RD11, YS-RE16, and YS-DE6 on aggregated Aβ25-35 was assessed by observing its shape using SEM.

[5] = test system: u-proMMP-7; settings: cited from earlier work
Text: Chaperones are potential drug candidates for folding diseases, such as AD and Parkinson’s disease, which are caused by protein aggregation. In recent years, research has focused on low-molecular-weight chemical chaperones rather than on chaperone proteins. Biochemical methods are used to screen for chemical chaperones with the aim of developing therapeutic agents for lysosomal diseases, which are ...

[6] = test system: Aβ42; parameters: method as in 2 sources, ref 28 = [28]; PMID 30930080; doi:10.1016/j.peptides.2019.03.005; 28. Nakamura R. Konishi M. Taniguchi M. Hatakawa Y. Akizawa T. The discovery of shorter synthetic proteolytic peptides derived from Tob1 protein Peptides 2019 116 71 77 10.1016/j.peptides.2019.03.005 ||| ref 29, 30, 31 = [29]; PMID 31687556; doi:10.1016/j.heliyon.2019.e02454; 29. Hatakawa Y. Nakamura R. Konishi M. Sakane T. Saito M. Akizawa T. Catalytides derived from the Box A region in the ANA/BTG3 protein cleave amyloid-β fragment peptide Heliyon 2019 5 e02454 10.1016/j || [30]; PMID 33816760; doi:10.1002/trc2.12146; 30. Hatakawa Y. Nakamura R. Konishi M. Sakane T. Tanaka A. Matsuda A. Saito M. Akizawa T. Amyloid beta cleavage by ANA-TA9, a synthetic peptide from the ANA/BTG3 Box A region Alzheimers Dement. Transl || [31]; 31. Nakamura R. Konishi M. Hatakawa Y. Saito M. Akizawa T. The Novel Catalytic Peptide, A Synthetic Nona-Peptide (JAL-TA9) Derived from Tob1 Protein, Digests the Amyloid-β Peptide J. R. Sci. 2019 1 30; settings: cited from earlier work
[7] = parameters: method as in PMID 30930080; settings: structure–activity relationship of JAL-AK22; cited from earlier work
[8] = in vivo; cited from earlier work
[9] = test system: patients with AD; settings: cited from earlier work
Text: Alzheimer’s disease (AD) is the most common age-related neurodegenerative disorder worldwide. Amyloid-β (Aβ) 42, which is produced by the cleavage of amyloid precursor protein (APP) by β- or γ-secretases, is considered to cause AD [1, 2, 3]. […] Thus, the current main strategy is to develop Aβ antibodies and vaccines aimed at inhibiting Aβ aggregation. […] Lecanemab, the latest Aβ ant ...

CC(C)C[C@H](NC(=O)[C@H](Cc1c[nH]cn1)NC(=O)[C@@H](NC(=O)[C@H](CC(C)C)NC(=O)[C@H](Cc1ccc(O)cc1)NC(=O)[C@@H](NC(=O)[C@H](CC(C)C)NC(=O)[C@@H](NC(=O)[C@H](CCC(=O)O)NC(=O)[C@@H](N)CCCNC(=N)N)[C@@H](C)O)C(C)C)[C@@H](C)O)C(=O)N[C@@H](CC(=O)O)C(=O)O [YS-RD11] (H-RETLVYLTHLD-OH)
effect on growth of A549 cells [1]: did not show a significant inhibitory effect on the growth of A549 cells | solubility [2]: high solubility | IC50 [3]: ~1500 nM

CC(C)C[C@H](NC(=O)[C@H](Cc1c[nH]cn1)NC(=O)[C@@H](NC(=O)[C@H](CC(C)C)NC(=O)[C@H](Cc1ccc(O)cc1)NC(=O)[C@@H](NC(=O)[C@H](CC(C)C)NC(=O)[C@@H](NC(=O)[C@H](CCC(=O)O)NC(=O)[C@@H](N)CCCNC(=N)N)[C@@H](C)O)C(C)C)[C@@H](C)O)C(=O)N[C@@H](CC(=O)O)C(=O)N[C@@H](Cc1ccc(O)cc1)C(=O)N[C@@H](CC(=O)O)C(=O)N[C@@H](CC(=O)O)C(=O)N[C@H](C(=O)N[C@@H](CCC(=O)O)C(=O)O)[C@@H](C)O [YS-RE16] (H-RETLVYLTHLDYDDTE-OH)
effect on growth of A549 cells [1]: did not show a significant inhibitory effect on the growth of A549 cells | IC50 [3]: ~500 nM

DYDDTE [YS-DE6, peptide derived from YS-RE20, DYDDTE]
amyloid fibrils observed by SEM, peptide 100 µM ([4]; 100 µM peptide + 100 µM aggregated Aβ25-35 (18 h), PBS): a cluster of amyloid fibrils | effect on Aβ25-35 aggregation, negative control ([4]; YS-DE6 as negative control): did not show any effect against Aβ25-35 aggregation

KWEGHWYPEKPYKGSGFRCIHI [JAL-AK22, reference compound]
activation of proMMP-7 [5]: activates proMMP-7 by cleaving the pro-domain of MMP-7

YKGSGFRMI [JAL-TA9]
cleavage of Aβ42 [6]: cleaved Aβ42 with serine protease-like activity | cleavage of soluble (a-Aβ42) and solid insoluble (s-Aβ42) Aβ42 [6]: cleaved both the authentic soluble form Aβ42 (a-Aβ42) and the solid insoluble form Aβ42 (s-Aβ42) in the central region | auto-proteolytic activity [7]: strongest auto-proteolytic activity

YKNMRETLVYLTHLD [YS-YD15]
aggregation inhibitory activity against Aβ25-35 (conclusion in words) ([3]; ThT, 100 μM peptides, PBS): weak inhibitory activity

YKNMRETLVYLTHLDYDDTE [YS-YE20]
activation of u-proMMP7 ([5]; screening of 3000 types of peptides, no reference given): activates u-proMMP7 by acting as a chaperone rather than Catalytide

oxytocin: the peptide oxytocin
drug delivery to the brain via nasal application [8]: direct and efficient drug delivery

B1: lecanemab: latest Aβ antibody drug approved by the U.S. Food and Drug Administration (antibody, chains of the INN, looked up, V domains shown)
VH: EVQLVESGGGLVQPGGSLRLSCSASGFTFSSFGMHWVRQAPGKGLEWVAYISSGSSTIYYGDTVKGRFTISRDNAKNSLFLQMSSLRAEDTAVYYCAREGGYYYGRSYYTMDYWGQGTTVTVSS
VL: DVVMTQSPLSLPVTPGAPASISCRSSQSIVHSNGNTYLEWYLQKPGQSPKLLIYKVSNRFSGVPDRFSGSGSGTDFTLRISRVEAEDVGIYYCFQGSHVPPTFGPGTKLEIK
side effects [9]: cerebral edema and cerebral microhemorrhage | clinical effectiveness by AD stage ([9]; patients with AD, no reference at this sentence): potentially effective in the early stages of AD but is less effective in the later stages
